Results on 13 compounds are retold here after patent publication US20250018049A1, “COMPOUNDS FOR DEGRADING CYCLIN-DEPENDENT KINASE 2 VIA UBIQUITIN PROTEOSOME PATHWAY” (NIKANG THERAPEUTICS, INC., priority 2020, published 2025).

Common to all, as to format: cell-based
Test [1] concerns the target T1, CDK2 (Homo sapiens, UniProt P24941). As to the kind of experiment: NanoBRET CDK2 engagement assay. Also on record: expressed in transfected cells. Conditions: OVCAR3 cells with stable CDK2-Luciferase vector, 24 hours treatment. In short, it runs like this: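 OVCAR3 cells stably expressing CDK2-luciferase, in Opti-MEM with 1% FBS, treated 24 h at 37° C with compound from 3 μM in ½-log steps to 0.3 nM; NanoBRET tracer present for final 2 h. Donor/acceptor emission read; engagement normalized to DMSO as 100% signal, IC50 by curve fit.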

Test [2] addresses T1, CDK2. As to the kind of experiment: Phospho-Rb HTRF measurement in OVCAR3 cells (inhibition of CDK2). Set-up: High-Throughput Measurement of Cellular Endogenous CDK2; endogenous in cells; host or cells: OVCAR3. The settings on record: pRB(S807/811) assay, 24 h compound treatment.
Test [3] concerns the target T1, CDK2. As to the kind of experiment: CDK2 HTRF assay (cellular endogenous CDK2 level). Set-up: High-Throughput Measurement of Cellular Endogenous CDK2; endogenous in cells; host or cells: OVCAR3. Conditions: OVCAR-3; OVCAR3 cells, 24 hours, 0.3 to 10,000 nM; read-out: max degradation of CDK2. The procedure:
Effects of compounds on cellular CDK2 level can be monitored by a high-throughput HTRF assay or traditional Western Blot assay.
To determine half maximal degradation concentration (DC50) values of compounds, cellular CDK2 level was measured in 96-well format using HTRF total CDK2 cellular kit (Cat #64CDK2TPEG) from Cisbio.
On Day 1, OVCAR3 cells were seeded into 96-well tissue-culture treated plates at 20,000 cells/well in 200 μL and incubated overnight at 37° C. in CO2 atmosphere. On Day 2 cells were treated with compounds at concentration ranging from 0.3 to 10,000 nM using HP D300 digital dispenser. 24 hours after compound treatment, cell culture media was removed by flicking the plate and tapping the plate against clean paper towel. Immediately 30 μL 1× lysis buffer was supplemented from the kit and the plate was incubated at room temperature on shaker for 30 min. After homogenization by pipetting up and down, 8 μL cell lysate from 96-well cell culture plate was transferred to 384-well small volume white detection plate. 2 μL premixed detection solution was added and the plate was covered with sealer. To prepare the detection solution, d2 conjugated-CDK2 antibody and Eu-cryptate conjugated CDK2 antibody were diluted into detection buffer following manufacturer's instruction. Detection plates were incubated overnight at room temperature and read on ClarioStar (BMG Labtech) in TR-FRET mode (665 nM and 620 nM). The TR-FRET ratio (665 nM/620 nM) was plotted against the compound concentration and normalized to DMSO controls. Half maximal degradation concentration (DC50) values were calculated with a four-parameter logistic fit using GraphPad Prism (version 8; La Jolla, CA). FIG. 1 provides a dose-response curve of Compound 1 in Compound Table I in cellular CDK2 HTRF assay. IC50 in FIG. 1 is the same as DC50. Compounds 1, 13, 16, 22, 23, 28, 34, 35, 36, 37, 38, 39, 42, 48, 50, 51, 53, 54, 55, 56, 57, 58, 59, 60, 61, 62, 63, 65, 66, 68, 69, 70 were tested and max degradation of CDK2 observed was from about 35% to about 90%.

A value given as a limit tells only on which side of the number the result lay.

Consider `O=C1CCC(N2Cc3cc(N4CCN(CC5CCN(c6cccc(S(=O)(=O)N7CCC(Nc8ncc9ccc(=O)n(C%10CCCC%10)c9n8)CC7)c6)CC5)CC4)ccc3C2=O)C(=O)N1` (stereo not drawn) [Compound 36, 3-(5-(4-((1-(3-((4-((8-cyclopentyl-7-oxo-7,8-dihydropyrido[2,3-d]pyrimidin-2-yl)amino)-piperidin-1-yl)sulfonyl)phenyl)piperidin-4-yl)-methyl)piperazin-1-yl)-1-oxoisoindolin-2-yl)-piperidine-2,6-dione], for which the IC50 against CDK2 [1] was found to be 212 nM; on CDK2 [2] it was 25.7 nM. The Dmax at CDK2 [3] lay in the range of 35 to 90%.
For `O=C1CCC(N2Cc3cc(N4CCC5(CC4)CN(Cc4cccc(S(=O)(=O)N6CCC(Nc7ncc8ccc(=O)n(C9CCCC9)c8n7)CC6)c4)C5)ccc3C2=O)C(=O)N1` (stereo not drawn) [Compound 57, 3-(5-(2-(3-((4-((8-cyclopentyl-7-oxo-7,8-dihydro-pyrido[2,3-d]pyrimidin-2-yl)amino)piperidin-1-yl)sulfonyl)benzyl)-2,7-diazaspiro[3.5]nonan-7-yl)-1-oxoisoindolin-2-yl)piperidine-2,6-dione], the IC50 against CDK2 [1] was 169 nM; on CDK2 [2], 49.6 nM. Besides, at CDK2 [3], the Dmax is 35 to 90%.
Take `O=C1CCC(N2C(=O)c3cc(F)c(N4CCN(Cc5cccc(S(=O)(=O)N6CCC(Nc7ncc8ccc(=O)n(C9CCCC9)c8n7)CC6)c5)CC4)cc3C2=O)C(=O)N1` (stereo not drawn) [Compound 48, 5-(4-(3-((4-((8-cyclopentyl-7-oxo-7,8-dihydro-pyrido[2,3-d]pyrimidin-2-yl)amino)piperidin-1-yl)sulfonyl)-benzyl)piperazin-1-yl)-2-(2,6-dioxo-piperidin-3-yl)-6-fluoroisoindoline-1,3-dione]: the IC50 at CDK2 [1] amounted to 722 nM; against CDK2 [2], 131 nM. Besides, the Dmax at CDK2 [3] fell in the range of 35 to 90%.
In the case of `O=C1CCC(N2C(=O)c3cccc(NCCOCCOCCOCCOCCNS(=O)(=O)N4CCC(Nc5ncc6ccc(=O)n(C7CCCC7)c6n5)CC4)c3C2=O)C(=O)N1` (stereo not drawn) [compound 1, 4-((8-cyclopentyl-7-oxo-7,8-dihydro-pyrido[2,3-d]pyrimidin-2-yl)amino)-N-(14-((2-(2,6-dioxopiperidin-3-yl)-1,3-dioxoisoindolin-4-yl)amino)-3,6,9,12-tetraoxatetradecyl)piperidine-1-sulfonamide], the values for the IC50 against CDK2 [1] and against CDK2 [2] were 403 nM and 440 nM, respectively. Also, the Dmax at CDK2 [3] lay within 35 to 90%.
Turning to `O=C1CCC(N2Cc3cc(C4CN(Cc5cccc(S(=O)(=O)N6CCC(Nc7ncc8ccc(=O)n(C9CCCC9)c8n7)CC6)c5)C4)ccc3C2=O)C(=O)N1` (stereo not drawn) [Compound 37, 3-(5-(1-(3-((4-((8-cyclopentyl-7-oxo-7,8-dihydropyrido[2,3-d]pyrimidin-2-yl)amino)-piperidin-1-yl)sulfonyl)benzyl)azetidin-3-yl)-1-oxoisoindolin-2-yl)piperidine-2,6-dione], the IC50 at CDK2 [1] came out at 190 nM; at CDK2 [2], 25.7 nM. The Dmax at CDK2 [3] was 35 to 90%.
Take `O=C1CCC(N2C(=O)c3cc(F)c(N4CCN(Cc5cccc(S(=O)(=O)N6CC[C@H](Nc7ncc8ccc(=O)n(C9CCCC9)c8n7)[C@H](F)C6)c5)CC4)cc3C2=O)C(=O)N1` (stereo partly drawn) [Compound 63, 5-(4-(3-(((3R,4S)-4-((8-cyclopentyl-7-oxo-7,8-dihydropyrido[2,3-d]pyrimidin-2-yl)amino)-3-fluoropiperidin-1-yl)sulfonyl)benzyl)piperazin-1-yl)-2-(2,6-dioxopiperidin-3-yl)-6-fluoroiso-indoline-1,3-dione]: the results for the IC50 at CDK2 [1] and against CDK2 [2] were 265 nM and 180 nM, respectively. In addition, the Dmax on CDK2 [3] lay in the range of 35 to 90%.
Taken in the same sequence, the figures for `O=C1CCC(N2Cc3cc(N4CCN(Cc5cccc(S(=O)(=O)N6CCC(Nc7ncc8ccc(=O)n(C9CCCC9)c8n7)CC6)c5)CC4)ccc3C2=O)C(=O)N1` (stereo not drawn) [Compound 50, 3-(5-(4-(3-((4-((8-cyclopentyl-7-oxo-7,8-dihydropyrido[2,3-d]pyrimidin-2-yl)-amino)-piperidin-1-yl)sulfonyl)benzyl)-piperazin-1-yl)-1-oxoisoindolin-2-yl)piperidine-2,6-dione] were 289 nM, 49 nM and 35 to 90%.
The like results for `O=C1CCC(N2Cc3cc(N4CC5(CN(Cc6cccc(S(=O)(=O)N7CCC(Nc8ncc9ccc(=O)n(C%10%11CC(C%10)C%11)c9n8)CC7)c6)C5)C4)ccc3C2=O)C(=O)N1` (stereo not drawn) [Compound 62, 3-(5-(6-(3-((4-((8-(bicyclo[1.1.1]pentan-1-yl)-7-oxo-7,8-dihydropyrido[2,3-d]pyrimidin-2-yl)-amino)piperidin-1-yl)sulfonyl)benzyl)-2,6-diazaspiro[3.3]heptan-2-yl)-1-oxoisoindolin-2-yl)-piperidine-2,6-dione] were, in that order, 284 nM, 21.8 nM and 35 to 90%.
As to `O=C1CCC(N2Cc3cc(N4CC5CCC4CN5Cc4cccc(S(=O)(=O)N5CCC(Nc6ncc7ccc(=O)n(C8CCCC8)c7n6)CC5)c4)ccc3C2=O)C(=O)N1` (stereo not drawn) [Compound 51, 3-(5-(5-(3-((4-((8-cyclopentyl-7-oxo-7,8-dihydropyrido[2,3-d]pyrimidin-2-yl)amino)-piperidin-1-yl)sulfonyl)benzyl)-2,5-diazabicyclo[2.2.2]octan-2-yl)-1-oxoisoindolin-2-yl)piperidine-2,6-dione], the IC50 was 198 nM against CDK2 [1] and 154 nM against CDK2 [2]. The Dmax at CDK2 [3] lay in the range of 35 to 90%.
Take `Cn1c(=O)n(C2CCC(=O)NC2=O)c2cccc(C3CCN(C4CCN(c5cccc(S(=O)(=O)N6CCC(Nc7ncc8ccc(=O)n(C9CCCC9)c8n7)CC6)c5)CC4)CC3)c21` (stereo not drawn) [Compound 39, 3-(4-(1′-(3-((4-((8-cyclopentyl-7-oxo-7,8-dihydro-pyrido[2,3-d]pyrimidin-2-yl)amino)piperidin-1-yl)sulfonyl)phenyl)-[1,4′-bipiperidin]-4-yl)-3-methyl-2-oxo-2,3-dihydro-1H-benzo[d]imidazol-1-yl)piperidine-2,6-dione]: the IC50 against CDK2 [1] is 94 nM; against CDK2 [2], 490 nM. Besides, on CDK2 [3], the Dmax fell in the range of 35 to 90%.
On to `CN(CCCN1CCC(c2cccc3c2n(C)c(=O)n3C2CCC(=O)NC2=O)CC1)S(=O)(=O)N1CCC(Nc2ncc3ccc(=O)n(C4CCCC4)c3n2)CC1` (stereo not drawn) [Compound 23, 4-((8-cyclopentyl-7-oxo-7,8-dihydropyrido[2,3-d]pyrimidin-2-yl)amino)-N-(3-(4-(1-(2,6-dioxo-piperidin-3-yl)-3-methyl-2-oxo-2,3-dihydro-1H-benzo[d]imidazol-4-yl)piperidin-1-yl)propyl)-N-methylpiperidine-1-sulfonamide], for which the IC50 at CDK2 [1] was < 1 nM; against CDK2 [2] it was 13.6 nM. Also, the Dmax on CDK2 [3] lay in the range of 35 to 90%.
With `O=C1CCC(N2Cc3cc(N4CCC5(CCN(Cc6cccc(S(=O)(=O)N7CCC(Nc8ncc9ccc(=O)n(C%10CCCC%10)c9n8)CC7)c6)CC5)CC4)ccc3C2=O)C(=O)N1` (stereo not drawn) [Compound 59, 3-(5-(9-(3-((4-((8-cyclopentyl-7-oxo-7,8-dihydro-pyrido[2,3-d]pyrimidin-2-yl)amino)piperidin-1-yl)sulfonyl)benzyl)-3,9-diazaspiro[5.5]undecan-3-yl)-1-oxoisoindolin-2-yl)piperidine-2,6-dione], the IC50 against CDK2 [1] was determined as 180 nM; against CDK2 [2], 48.2 nM. The Dmax at CDK2 [3] lay within 35 to 90%.
Consider `CN(CCN(C)S(=O)(=O)N1CCC(Nc2ncc3ccc(=O)n(C4CCCC4)c3n2)CC1)Cc1ccc(N(C)c2cccc3c2C(=O)N(C2CCC(=O)NC2=O)C3=O)cc1` (stereo not drawn) [Compound 22, 4-((8-cyclopentyl-7-oxo-7,8-dihydropyrido[2,3-d]-pyrimidin-2-yl)amino)-N-(2-((4-((2-(2,6-dioxopiperidin-3-yl)-1,3-dioxoisoindolin-4-yl)(methyl)amino)benzyl)(methyl)amino)ethyl)-N-methylpiperidine-1-sulfonamide], for which the IC50 came to 903 nM against CDK2 [1] and 798 nM against CDK2 [2]. Moreover, the Dmax at CDK2 [3] was 35 to 90%.
